Data from the CheMixHub viscosity set.
Where “and” joins values, the source holds several entries; their conditions need not be identical. Identical values can stand only once. ± gives the uncertainty stated by the source.

Legend:
[1] = xn = mol fraction of the nth substance listed

CCn1cc[n+](C)c1C.O=S(=O)([N-]S(=O)(=O)C(F)(F)F)C(F)(F)F
101.3 kPa
Details	viscosity [mPa·s]
293.15 K	88.09 ± 1.9
298.15 K	69.84 ± 1.5
303.15 K	56.37 ± 1.2
308.15 K	46.1 ± 0.96
313.15 K	38.26 ± 0.8
318.15 K	32.15 ± 0.67
323.15 K	27.31 ± 0.57

CCCCCCC(C)O (stereo not drawn)
viscosity
Details	298.15 K	303.15 K	308.15 K
101 kPa	6.49 ± 0.07 mPa·s	–	–
101.3 kPa	5.929 ± 0.13 mPa·s and 5.956 ± 0.069 mPa·s	4.794 ± 0.11 mPa·s and 4.803 ± 0.058 mPa·s	3.909 ± 0.095 mPa·s and 3.907 ± 0.047 mPa·s
101.33 kPa	–	4.804 ± 0.054 mPa·s	–

O=C(Cl)c1ccccc1
Details	viscosity [mPa·s]
303.15 K, 101 kPa	1.244 ± 0.015

CCn1cc[n+](CCOC)c1.O=S(=O)([O-])C(F)(F)F
101.33 kPa
Details	viscosity [mPa·s]
293.15 K	92.53 ± 2.9
298.15 K	72.51 ± 2
303.15 K	57.87 ± 1.5
308.15 K	47.34 ± 1.2
313.15 K	39.02 ± 1
318.15 K	32.59 ± 0.85

[2H]OCCCCC
Details	viscosity [mPa·s]
306.3 K, 101.33 kPa	2.685 ± 0.16

COCCn1cc[n+](C)c1.C[C@@H](O)[C@H](N)C(=O)[O-]
100 kPa
Details	viscosity [mPa·s]
298.15 K	900.5 ± 88
303.15 K	625.4 ± 54
308.15 K	362.1 ± 24
313.15 K	260 ± 15
318.15 K	184.4 ± 8.3
323.15 K	136.8 ± 4.8

CCOC(=O)C(Br)CC (stereo not drawn)
Details	viscosity [mPa·s]
303.15 K, 101 kPa	1.529 ± 0.0092

CN(C)CCN(C)C
100 kPa
Details	viscosity [mPa·s]
293.15 K	0.615 ± 0.06
303.15 K	0.557 ± 0.06
313.15 K	0.493 ± 0.06
323.15 K	0.439 ± 0.06

CCCCCCn1cc[n+](C)c1.[Cl][Fe-]([Cl])([Cl])[Cl]
101 kPa
Details	viscosity [mPa·s]
293.15 K	73.92 ± 3.2
298.15 K	58.96 ± 2.5
303.15 K	47.89 ± 2
308.15 K	39.56 ± 1.7
313.15 K	33.07 ± 1.4
318.15 K	28.06 ± 1.2
323.15 K	24.02 ± 1

COS(=O)(=O)[O-].Cn1cc[n+](C)c1
viscosity [mPa·s]
Details	298.15 K	303.15 K	308.15 K	313.15 K
100 kPa	93.4 ± 2.4	–	–	–
101 kPa	78 ± 4.7	61.9 ± 3.7	49.9 ± 3	40.9 ± 2.5

c1ccncc1
viscosity
Details	293.15 K	298 K	298.15 K	298.25 K	303.15 K	308.15 K	313.15 K	318.15 K	323.15 K
100 kPa	0.9801 ± 0.012 mPa·s	–	0.9155 ± 0.011 mPa·s	–	0.8568 ± 0.011 mPa·s	0.8032 ± 0.01 mPa·s	0.7546 ± 0.0096 mPa·s	0.7103 ± 0.0092 mPa·s	0.6698 ± 0.0088 mPa·s
101 kPa	–	–	–	–	–	0.76 ± 0.02 mPa·s and 0.7914 ± 0.0073 mPa·s	0.714 ± 0.007 mPa·s (2×) and 0.724 ± 0.013 mPa·s	0.6939 ± 0.0067 mPa·s	0.645 ± 0.0097 mPa·s and 0.6248 ± 0.017 mPa·s
101.3 kPa	–	0.882 ± 0.012 mPa·s	0.903 ± 0.024 mPa·s	–	–	0.75 ± 0.02 mPa·s	–	0.675 ± 0.018 mPa·s	–
101.33 kPa	–	–	–	0.88 ± 0.044 mPa·s	0.828 ± 0.022 mPa·s	0.78 ± 0.009 mPa·s	0.8 ± 0.04 mPa·s	0.66 ± 0.008 mPa·s	–

NCCNCCNCCN
101 kPa
Details	viscosity [mPa·s]
303.15 K	25.41 ± 2.5
313.15 K	15.31 ± 1.5
323.15 K	9.867 ± 0.99

c1c[nH]cn1 + O
viscosity [mPa·s], [1], 100 kPa
Details	x1 = 0.0286	x1 = 0.0621	x1 = 0.102	x1 = 0.15	x1 = 0.209
298.15 K	1.058 ± 0.043	1.242 ± 0.05	1.47 ± 0.06	1.737 ± 0.071	2.14 ± 0.09
303.15 K	0.944 ± 0.038	1.103 ± 0.045	1.301 ± 0.054	1.541 ± 0.064	1.881 ± 0.078
313.15 K	0.771 ± 0.031	0.892 ± 0.036	1.043 ± 0.043	1.261 ± 0.052	1.543 ± 0.064
323.15 K	0.647 ± 0.026	0.742 ± 0.03	0.862 ± 0.036	1.034 ± 0.043	1.254 ± 0.052

CCCCCCC(C)O (stereo not drawn) + Clc1ccccc1
viscosity [mPa·s], [1], 101 kPa
Details	298.15 K	303.15 K
x2 = 0.0637	5.573 ± 0.03	4.507 ± 0.025
x2 = 0.1236	4.736 ± 0.026	3.906 ± 0.022
x2 = 0.1894	3.906 ± 0.022	3.291 ± 0.019
x2 = 0.2474	3.319 ± 0.019	2.818 ± 0.016
x2 = 0.3131	2.772 ± 0.016	2.369 ± 0.014
x2 = 0.374	2.378 ± 0.014	1.981 ± 0.012
x2 = 0.4525	1.947 ± 0.012	1.641 ± 0.011
x2 = 0.5014	1.737 ± 0.011	1.467 ± 0.01
x2 = 0.5867	1.452 ± 0.01	1.238 ± 0.009
x2 = 0.6813	1.203 ± 0.009	1.08 ± 0.009
x2 = 0.7429	1.085 ± 0.009	1 ± 0.008
x2 = 0.8098	0.968 ± 0.008	0.929 ± 0.008
x2 = 0.8776	0.872 ± 0.008	0.867 ± 0.008
x2 = 0.9446	0.803 ± 0.008	0.786 ± 0.008

CC(O)CCO (stereo not drawn)
101 kPa
Details	viscosity
298.15 K	96.7 ± 2.2 mPa·s and 96.8 ± 1.2 mPa·s
303.15 K	69.7 ± 1.5 mPa·s and 70.93 ± 0.56 mPa·s
308.15 K	51.8 ± 1.1 mPa·s and 53.72 ± 0.28 mPa·s
313.15 K	40 ± 0.8 mPa·s and 40.13 ± 0.26 mPa·s
318.15 K	29.9 ± 0.6 mPa·s and 31.22 ± 0.2 mPa·s

c1c[nH]cn1 + c1ccccc1
viscosity [mPa·s], [1], 101 kPa
Details	x1 = 0.003214	x1 = 0.006433	x1 = 0.01278	x1 = 0.03561	x1 = 0.03951
303.15 K	0.57 ± 0.018	0.578 ± 0.018	0.595 ± 0.018	–	–
323.15 K	–	–	0.457 ± 0.016	0.505 ± 0.017	0.513 ± 0.017

c1cn[nH]c1 + c1ccccc1
viscosity [mPa·s], [1], 101 kPa
Details	x1 = 0.02244	x1 = 0.04519	x1 = 0.05005	x1 = 0.1006
303.15 K	0.577 ± 0.021	0.597 ± 0.022	0.594 ± 0.022	0.627 ± 0.023
323.15 K	0.449 ± 0.018	0.46 ± 0.019	0.462 ± 0.019	–

CC(O)CCO (stereo not drawn) + O=C1CCCN1
Details	viscosity [mPa·s]
[1], 308.15 K, 101 kPa, x2 = 0.7935	11.85 ± 0.3
